Results taken from US20180021467A1, “METHOD OF BLOCKING PERCEPTION OF MALODOR” (Monell Chemical Senses Center, priority 2015, published 2018).
Like-named read-outs stand apart in the source and are kept apart here.

How the values were obtained:
TAAR5 [1] = biological target: T1, TAAR5 (Homo sapiens, UniProt O14804); assay: Antagonist screen of odor library on TAAR5 with agonist TMA (Dual-Glo luciferase assay, Hana3A cells); assay type: cell-based; design: TAAR open reading frames were amplified from pooled human genomic DNA using Phusion polymerase and subcloned into a pCI expression vector; Rho tag (first 20 residues of human rhodopsin); expressed in transfected cells; host or cells: Hana3A cells; settings: for inhibition at 30 µM: read-out: Percent Inhibition
T1 sequence (O14804 1-337): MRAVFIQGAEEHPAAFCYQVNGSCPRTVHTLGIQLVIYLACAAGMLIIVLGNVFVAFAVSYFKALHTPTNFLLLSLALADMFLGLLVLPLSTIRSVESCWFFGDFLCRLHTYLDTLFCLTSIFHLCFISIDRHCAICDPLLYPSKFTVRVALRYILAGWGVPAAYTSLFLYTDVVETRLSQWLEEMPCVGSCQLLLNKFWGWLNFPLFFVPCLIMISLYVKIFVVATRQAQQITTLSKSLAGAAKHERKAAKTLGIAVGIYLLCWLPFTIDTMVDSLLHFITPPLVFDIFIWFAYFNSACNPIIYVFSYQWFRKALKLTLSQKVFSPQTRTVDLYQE
Experimental: We screened a TAAR of interest, TAAR5, with the agonist TMA added at the EC80 concentration, against a proprietary small-molecule library to identify antagonists. TAAR open reading frames were amplified from pooled human genomic DNA using Phusion polymerase and subcloned into a pCI expression vector (Promega) containing the first 20 residues of human rhodopsin (Rho tag). […] Hana3A cells were transfected with 5 ng/well of RTP1S, 5 ng/well of pRL-SV40, 10 ng/well of CRE-luciferase, 2.5 ng/well of M3, and 5 ng/well of odorant receptor. 1M odorant stocks were diluted in DMSO. 24 hours following transfection, transfection media was removed and replaced with the appropriate concentration of odor diluted from the 1M stocks in CD293 (Gibco). Four hours following odor stimulation luminescence was measured using a Synergy 2 plate reader (Biotek). All luminescence values were divided by the Renilla Luciferase activity to control for transfection efficiency in a given well.
We completed an antagonist screen of a proprietary library of odors, including the 52 odorous compounds identified in FIG. 4 at a concentration of 30 μM.

TAAR5 [2] = biological target: T1, TAAR5; assay: Dose responses on TAAR5 in luciferase assay (antagonist dose-dependent inhibition with TMA at EC80; TMA dose response with antagonist at IC10, IC30, IC50); assay type: cell-based; design: TAAR open reading frames were amplified from pooled human genomic DNA using Phusion polymerase and subcloned into a pCI expression vector; Rho tag (first 20 residues of human rhodopsin); expressed in transfected cells; host or cells: Hana3A cells; settings: for IC10 concentration of antagonist: lowest of the three concentrations in FIG. 2; for IC30 concentration of antagonist: middle of the three concentrations in FIG. 2
Text: We screened a TAAR of interest, TAAR5, with the agonist TMA added at the EC80 concentration, against a proprietary small-molecule library to identify antagonists. TAAR open reading frames were amplified from pooled human genomic DNA using Phusion polymerase and subcloned into a pCI expression vector (Promega) containing the first 20 residues of human rhodopsin (Rho tag). The sequences of the cloned receptors were verified by sequencing (3730xl Sequencer, ABI Biosystems). We used the Dual-Glo™ Luciferase Assay System (Promega) to measure receptor responses as previously described in Trimmer, C. et al 2014 High-throughput Analysis of Mammalian Olfactory Receptors: Measurement of Receptor Activation via Luciferase Activity. Journal of Visualized Experiments, (88). doi:10.3791/51640. Hana3A cells were transfected with 5 ng/well of RTP1S, 5 ng/well of pRL-SV40, 10 ng/well of CRE-luciferase, 2.5 ng/well of M3, and 5 ng/well of odorant receptor. 1M odorant stocks were diluted in DMSO. 24 hours following transfection, transfection media was removed and replaced with the appropriate concentration of odor diluted from the 1M stocks in CD293 (Gibco). Four hours following odor stimulation luminescence was measured using a Synergy 2 plate reader (Biotek). All luminescence values were divided by the Renilla Luciferase activity to control for transfection efficiency in a given well.
In a secondary experiment, we ran dose dependent inhibition responses for the top twelve antagonists, i.e., the top 12 compounds identified in FIG. 4. TMA was kept at the EC80 (500 μM) and the twelve antagonists were diluted in a dose response with the highest concentration at 1000 μM. The top five candidate compounds, i.e., phenethyl benzoate, trans-2-nonen-1-ol, isoeugenyl phenlacetate, tributyl-2-acetylcitrate, bis(2-methyl-3-furyl)disulfide, were rescreened using an antagonist dose response at 2500 μM. We determined the IC80 values for those five antagonists. Using those IC80 values, we completed a 3-fold dilution dose response of TMA, starting at 3000 μM, in the presence of our five candidate antagonists. […] It was difficult to determine if the five antagonists were competitive or non-competitive inhibitors using the very high IC80 concentrations of the antagonists.
In another experiment, we evaluated dose responses of TMA in the presence of the antagonist at their IC10, IC30 and IC50 concentrations.

[3] = test system: human perception of TMA odor ("fishy"); assay: Human perceptual ratings of fishiness of TMA with antagonist or control odor (air-dilution olfactometer); assay type: in vivo; settings: human subjects, TMA 3 mM, 1 mM, 0.33 mM, odors intensity-balanced to 1 mM TMA
Experimental: We evaluated the efficacy of the in vitro antagonists on human perception. We asked 10 (FIG. 5A) or 29 (FIG. 5B) subjects to rate how “fishy” and how “pleasant” an odor was. The odors were delivered to the subject using an air-dilution olfactometer (Lundström, J. N., et al., 2010 International Journal of Psychophysiology, 78(2), 179-189; doi:10.1016/j.ijpsycho.2010.07.007) and each trial consisted of one concentration of trimethylamine (either 3 mM, 1 mM, 0.33 mM, or a water blank) combined with either an antagonist or a solvent blank. Subjects used a general labeled magnitude scale to rate how “fishy” the odor smelled and a scale from −10 to +10 to rate the pleasantness.
The antagonists and control odors were intensity-balanced to match the 1 mM concentration of TMA. Trans-2-nonen-1-ol was diluted in Diethyl phthalate (DEP); TMA was diluted in water with NaOH added; Linalool was diluted in DEP. In all trials subjects received air from jars containing water and DEP so that solvent presence could not be used as a cue to the presence of the test odor.

[4] = inhibition of TMA/TAAR5 response, test odor at 30 μM, TMA at EC80
[5] = TAAR5 luciferase, vs TMA, highest of the three concentrations in FIG. 2, read-out: IC50 concentration of antagonist

| Molecule | inhibition at 30 µM (TAAR5 [1]; [4]) [%] | also measured |
| --- | --- | --- |
| O=C(Cc1ccccc1)Cc1ccccc1 [1,3-Diphenyl-2-propanone] | 73.1 |  |
| CCCCCCCCCCCCCCO [1-Tetradecanol] | 54.1 |  |
| OC1CSC(O)CS1 (stereo not drawn) [2,5-Dihydroxy-1,4-dithiane] | 67.9 |  |
| CC(C=O)Cc1ccc2c(c1)OCO2 (stereo not drawn) [2-Methyl-3-(3,4-methylenedioxyphenyl)-propanal] | 50.1 |  |
| C/C=C(\C=O)c1ccccc1 [2-Phenyl-2-butenal] | 68.9 |  |
| CCCCCCC/C=C/C=O [2-decenal] | 66.4 |  |
| CC(C)CCCC(C)CCO (stereo not drawn) [3,7-Dimethyl-1-octanol] | 57.1 |  |
| CSCCC=O [3-(Methylthio)propionaldehyde] | 54.5 |  |
| CCCCCC/C=C/C(C)=O [3-Decen-2-one] | 72.5 |  |
| C=CCN=C=S [Allyl isothiocyanate] | 77.4 |  |
| CCCCCC(C=O)=Cc1ccccc1 [Alpha-Amylcinnamaldehyde] | 75.8 |  |
| C[C@@]12C=CC[C@H]1[C@@H]1CCC3=CC(=O)CC[C@]3(C)[C@H]1CC2 [Androstadienone, Androsta-4,16-dien-3-one] | 76 |  |
| O=C(OCc1ccccc1)c1ccccc1 [Benzyl benzoate] | 83.9 |  |
| c1ccc(CSSCc2ccccc2)cc1 [Benzyl disulfide] | 81 |  |
| SCc1ccccc1 [Benzyl mercaptan] | 75.8 |  |
| O=C(Cc1ccccc1)OCc1ccccc1 [Benzyl phenylacetate] | 72.7 |  |
| O=C(OCc1ccccc1)c1ccccc1O [Benzyl salicylate] | 74.2 |  |
| Cc1occc1SSc1ccoc1C [Bis(2-Methyl-3-furyl) disulfide] | 88.3 | IC50 (TAAR5 [2]; [5]): 158 µM; IC10 concentration of antagonist (TAAR5 [2]; TAAR5 luciferase, vs TMA): 31.62 µM; IC30 concentration of antagonist (TAAR5 [2]; TAAR5 luciferase, vs TMA): 77.62 µM |
| Cc1ccc(C(C)C)cc1O [Carvacrol] | 52.2 |  |
| O=CC1CCCCCC1 [Cycloheptanecarbaldehyde] | 64.4 |  |
| CC1COCc2cc3c(cc21)C(C)(C)C(C)C3(C)C (stereo not drawn) [Galaxolide] | 71.2 |  |
| CCCCCC=O [Hexanal] | 69.4 |  |

| Molecule | inhibition at 30 µM (TAAR5 [1]; [4]) [%] | also measured |
| --- | --- | --- |
| O=C1CCCCCCC/C=C/CCCCCCO1 [Isoambrettolide] | 78.7 |  |
| CC(C)COC(=O)c1ccccc1 [Isobutyl benzoate] | 63.3 |  |
| C/C=C/c1ccc(OC(=O)Cc2ccccc2)c(OC)c1 [Isoeugenyl phenylacetate] | 89.1 | IC50 (TAAR5 [2]): 703 µM; IC10 concentration of antagonist (TAAR5 [2]; TAAR5 luciferase, vs TMA): 100 µM; IC30 concentration of antagonist (TAAR5 [2]; TAAR5 luciferase, vs TMA): 316.22 µM; effect on perceived fishy rating of TMA ([3]; listed as Isoeugenyl Phenylacetate): showed a similar pattern; effect on perceived fishy rating of TMA ([3]; listed as isoeugenyl phenylacetate): decreases fishy intensity |
| CCCCCCCCCCCC(=O)O [Lauric acid] | 86 |  |
| COc1ccc2cc(CCC(C)=O)ccc2c1 [Nabumetone] | 73.8 |  |
| O=C(OCCc1ccccc1)c1ccco1 [Phenethyl 2-furoate] | 59.6 |  |
| Nc1ccccc1C(=O)OCCc1ccccc1 [Phenethyl anthranilate] | 92.8 |  |
| O=C(OCCc1ccccc1)c1ccccc1 [Phenethyl benzoate] | 93.5 | IC50 (TAAR5 [2]; [5]): 479 µM; IC10 concentration of antagonist (TAAR5 [2]; TAAR5 luciferase, vs TMA): 50.11 µM; IC30 concentration of antagonist (TAAR5 [2]; TAAR5 luciferase, vs TMA): 251.19 µM |
| O=C(Cc1ccccc1)OCCc1ccccc1 [Phenethyl phenylacetate] | 88.9 |  |
| O=C(OCCc1ccccc1)c1ccccc1O [Phenethyl salicylate] | 85 |  |
| O=C1CCCCCCCCCCCCCCO1 [Thibetolide] | 81 |  |
| CC/C=C/CC/C=C/C=O [Trans, trans-2,6-Nonadienal] | 71.4 |  |
| COC(=O)c1ccccc1/N=C/CC(C)CCCC(C)(C)O (stereo not drawn) [aurantiol] | 79.6 |  |
| OCc1ccccc1 [benzyl alcohol] | 62.5 |  |
| CC/C=C\CCC=O [cis-4-Heptenal] | 61.5 |  |
| CCc1occc(=O)c1O [ethyl maltol, 2-Ethyl-3-hydroxy-4H-pyran-4-one] | 72.5 |  |
| CC(C)=CCC/C(C)=C/CO [geraniol] | 81.3 |  |
| CC(=O)C1(C)CC2=C(CCCC2(C)C)CC1C (stereo not drawn) [iso E super, isocyclemone E] | 69.6 |  |
| C=CC(C)(O)CCC=C(C)C (stereo not drawn) [linalool, reference compound] |  | effect on perceived fishy rating of TMA [3]: no effect on these fishy ratings; effect on perceived fishy rating of TMA ([3]; listed as Linalool): does not; in vitro antagonism (TAAR5 [1]; hTAAR5): did not show in vitro antagonism |
| CCCCCCCCCCCCCC(=O)O [myristic acid] | 59.1 |  |
| O=C1CCCC=CCCCCCCCCCC1 [velvione, 5-Cyclohexadecen-1-one] | 76 |  |
| Tributyl-2-Acetylcitrate |  | IC50 (TAAR5 [2]; [5]): 242 µM; IC10 concentration of antagonist (TAAR5 [2]; TAAR5 luciferase, vs TMA): 74.14 µM; IC30 concentration of antagonist (TAAR5 [2]; TAAR5 luciferase, vs TMA): 194.98 µM; Percent Inhibition (TAAR5 [1]; [4]): 87.83% |
